This note sets out measurements from PMC4459817, “Vasculotide reduces endothelial permeability and tumor cell extravasation in the absence of binding to or agonistic activation of Tie2” (EMBO Molecular Medicine, 2015).

The assay deals with Tie2 in HUVECs. Briefly: in vitro Tie2 phosphorylation (immunoprecipitation/immunoblot), HUVEC. To be noted: Ang1 15–400 ng/mL (0.05–1.43 nM), VT 5–100 ng/mL (0.36–7.1 nM), 10, 15 or 45 min, with or without starvation. In kind it is cell-based, human. The text has this: Figure 7 In vitro Vasculotide vs. Ang1 stimulations: effects on Tie2 receptor phosphorylation in primary endothelial cells—HUVECs (A-E) and HMVEC-DBls (F) • A–F Primary human umbilical vein endothelial cells (HUVECs) or primary human dermal microvascular endothelial cells (HMVEC-DBls) were stimulated at 80% confluency with Vasculotide (treatment), Ang1 (positive control; ligand of Tie2), PBS (vehicle control), or VEGF (negative control; non-ligand of Tie2). Tie2 was immunoprecipitated from cell lysates and immunoblotted for total Tie2 or phosphotyrosine. […] Source data are available online for this figure. […]
Nodule areas were then […]
unit converted (to μm2) and normalized to total lung section area (including air spaces) using ROI measurements from ImageJ software (NIH).
7. Histological assessment of primary tumor viability and hypoxia
5-μm thick sections of PFA-fixed paraffin-embedded mammary fat pad tumors were subjected to: (i) standard hematoxylin and eosin (H&E) staining to visualize viable vs. necrotic regions; or (ii) standard IHC staining with a goat anti-human carbonic anhydrase IX (CAIX or CA9) antibody (R&D Systems AF2188, 1:80 dilution) plus hematoxylin counterstain to visualize hypoxic regions. […]
IHC staining for CAIX further marks a hypoxic band at the edge of the viability rim bordering the necrotic core – the thickness of this hypoxic edge was averaged over 12 measurements spaced 30o apart (see Fig. 5E).
8. Western immunoblotting for total or phosphorylated Tie2
Cultured ECs and TCs were lysed in RIPA lysis buffer as previously described (Bogdanovic et al, 2006).
Lung/ liver/ kidney tissues, which had been snap-frozen in liquid nitrogen once harvested from mice, were homogenized in RIPA lysis buffer (50 mM Tris-HCl pH 7.5, 150 mM NaCl, 1% Igepal, 0.5% sodium deoxycholate, 0.1% SDS, 1 mM Na3VO4 and protease inhibitors) at 4 °C. […]
Semi-quantitative densitometry analysis of immunoblots was performed using the ChemiGenius2 bioimaging system and GeneSnap/GeneTools software (Syngene). […]
(In general: A western blot detects proteins with antibodies after separation by electrophoresis.)

With “CHHHRHSF [Vasculotide, 4-armed maleimide-functionalized polyethylene glycol (PEG) backbone to link together four cysteine-capped T7 peptides, that is, CHHHRHSF]”, the Tie2 phosphorylation result is given as “did not lead to increases in the pTie2/Tie2 ratio”. The Tie2 phosphorylation entry (listed as VT) is “did not lead to any appreciable induction of Tie2 phosphorylation”.

B1: recombinant human Ang1 (rhAng1) (ligand, UniProt Q15389 16-498, looked up)
chain: HIGCSNQRRSPENSGRRYNRIQHGQCAYTFILPEHDGNCRESTTDQYNTNALQRDAPHVEPDFSSQKLQHLEHVMENYTQWLQKLENYIVENMKSEMAQIQQNAVQNHTATMLEIGTSLLSQTAEQTRKLTDVETQVLNQTSRLEIQLLENSLSTYKLEKQLLQQTNEILKIHEKNSLLEHKILEMEGKHKEELDTLKEEKENLQGLVTRQTYIIQELEKQLNRATTNNSVLQKQQLELMDTVHNLVNLCTKEGVLLKGGKREEEKPFRDCADVYQAGFNKSGIYTIYINNMPEPKKVFCNMDVNGGGWTVIQHREDGSLDFQRGWKEYKMGFGNPSGEYWLGNEFIFAITSQRQYMLRIELMDWEGNRAYSQYDRFHIGNEKQNYRLYLKGHTGTAGKQSSLILHGADFSTKDADNDNCMCKCALMLTGGWWFDACGPSNLNGMFYTAGQNHGKLNGIKWHYFKGPSYSLRSTTMMIRPLDF
notes: angiopoietin-1, human, recombinant; also called angiopoietin-1; source: bought: R&D Systems (named for the Boyden chamber experiments)
As to B1, the Tie2 phosphorylation result was “strongly and consistently activated Tie2 phosphorylation”.
